Source: PMC8286840, “Identifying SARS-CoV-2 antiviral compounds by screening for small molecule inhibitors of Nsp3 papain-like protease” (Biochemical Journal, 2021)
Structures can show the parent of a compound that is named as a salt. Where two headings read alike, the source gives them in different places. Where a SMILES comes first, the peptide text is derived from it.

How the values were obtained:
[1] = molecular target: T1, SARS-CoV-2 PLpro (nsp3 1564–1878) (Severe acute respiratory syndrome coronavirus 2, UniProt P0DTD1); test: biochemical; parameters: FRET-quenched peptide (Pro3) cleavage by PLpro, 10 min pre-incubation, slope over 20 min, normalised to no-compound control; conditions: low concentration screen, read-out: % of control remaining
[2] = molecular target: T1, SARS-CoV-2 PLpro (nsp3 1564–1878); test: biochemical; parameters: FRET-quenched peptide (Pro3) cleavage by PLpro, 10 min pre-incubation, slope over 20 min, normalised to no-compound control; conditions: high concentration screen, read-out: % of control remaining

For O=c1cc(N2CCOCC2)oc2c(-c3ccccc3)cccc12 [LY-294,002 hydrochloride], the remaining activity at 1.25 µM ([1]; Well no.=1077) was 93.7% and the remaining activity at 3.75 µM ([2]; Well no.=1077) was 90.8%.
Compound O=S1(=O)N(CCN2CC=C(c3c[nH]c4cc(F)ccc34)CC2)c2cccc3c2N1CCC3 [LY-367,265] has a remaining activity at 1.25 µM ([1]; Well no.=785) of 100% and a remaining activity at 3.75 µM ([2]; Well no.=785) of 103%.
Work on CCCc1c(OCCCCc2nnn[nH]2)ccc(C(C)=O)c1O [LY-171883] yielded a remaining activity at 1.25 µM ([1]; Well no.=4522) of 98% and a remaining activity at 3.75 µM ([2]; Well no.=4522) of 102%.
For CC(CCc1ccccc1)NCC(O)c1ccc(O)c(C(N)=O)c1 (centres unmarked) [Labetalol (hydrochloride)], the remaining activity at 1.25 µM ([1]; Well no.=8287) was 99.3% and the remaining activity at 3.75 µM ([2]; Well no.=8287) was 94.7%.
In the case of CC(CCc1ccccc1)NCC(O)c1ccc(O)c(C(N)=O)c1 (centres unmarked) [Labetalol hydrochloride], the remaining activity at 1.25 µM ([1]; Well no.=975) is reported as 102% and the remaining activity at 3.75 µM ([2]; Well no.=975) is reported as 101%.
Compound CCOC(=O)C1=C(C)NC(C)=C(C(=O)OCC)C1c1ccccc1/C=C/C(=O)OC(C)(C)C [Lacidipine] has a remaining activity at 1.25 µM ([1]; Well no.=1798) of 99.9% and a remaining activity at 3.75 µM ([2]; Well no.=1798) of 100%.
O=C(C[S+]([O-])Cc1ccco1)NC/C=C\COc1cc(CN2CCCCC2)ccn1 (centres unmarked) [Lafutidine] was tested, and the remaining activity at 1.25 µM ([1]; Well no.=4722) was 93.3%, the remaining activity at 1.25 µM ([1]; Well no.=7581) was 90.1% and the remaining activity at 3.75 µM ([2]; Well no.=4722) was 95%. The remaining activity at 3.75 µM ([2]; Well no.=7581) was 90.4%.
C[C@@H]1CC[C@H]2[C@](C)(CO)[C@@H](O)CC[C@]2(C)[C@@]12CC[C@@](CO)(CCO)O2 [Lagochiline] gave a remaining activity at 1.25 µM ([1]; Well no.=3651) of 100% and a remaining activity at 3.75 µM ([2]; Well no.=3651) of 101%.
Work on Nc1ccn([C@@H]2CS[C@H](CO)O2)c(=O)n1 [Lamivudine] yielded a remaining activity at 1.25 µM ([1]; Well no.=8142) of 100% and a remaining activity at 3.75 µM ([2]; Well no.=8142) of 98.2%.
Nc1nnc(-c2cccc(Cl)c2Cl)c(N)n1 [Lamotrigine] was tested, and the remaining activity at 1.25 µM ([1]; Well no.=977) was 99.1%, the remaining activity at 1.25 µM ([1]; Well no.=1832) was 95.1% and the remaining activity at 3.75 µM ([2]; Well no.=977) was 101%. The remaining activity at 3.75 µM ([2]; Well no.=1832) was 92.9%.
Cc1c(OCC(F)(F)F)ccnc1C[S+]([O-])c1nc2ccccc2[nH]1 (centres unmarked) [Lansoprazole] showed a remaining activity at 1.25 µM ([1]; Well no.=1075) of 98.5% and a remaining activity at 3.75 µM ([2]; Well no.=1075) of 98.7%.
Work on CS(=O)(=O)CCNCc1ccc(-c2ccc3ncnc(Nc4ccc(OCc5cccc(F)c5)c(Cl)c4)c3c2)o1 [Lapatinib ditosylate] yielded a remaining activity at 1.25 µM ([1]; Well no.=1714) of 105% and a remaining activity at 3.75 µM ([2]; Well no.=1714) of 105%.
Work on CS(=O)(=O)CCNCc1ccc(-c2ccc3ncnc(Nc4ccc(OCc5cccc(F)c5)c(Cl)c4)c3c2)o1 [Lapatinib] yielded a remaining activity at 1.25 µM ([1]; Well no.=2983) of 94.8% and a remaining activity at 3.75 µM ([2]; Well no.=2983) of 92.8%.
C/C=C(/C)C(=O)O[C@H]1CC(C)=CC(=O)[C@@]2(C)CC[C@@](O)(C(C)C)[C@H]12 [Lapidin] gave a remaining activity at 1.25 µM ([1]; Well no.=3159) of 105% and a remaining activity at 3.75 µM ([2]; Well no.=3159) of 105%.
Work on CCN1C[C@]2(OC(=O)c3ccccc3NC(C)=O)CC[C@H](OC)[C@@]34[C@@H]2C[C@@H]([C@@H]13)[C@@]1(O)C[C@H](OC)[C@H]2C[C@@H]4[C@]1(O)[C@H]2OC [Lappaconitine] yielded a remaining activity at 1.25 µM ([1]; Well no.=3653) of 103% and a remaining activity at 3.75 µM ([2]; Well no.=3653) of 105%.
For CCN(C(=O)c1c(O)c2c(Cl)cccc2n(C)c1=O)c1ccccc1 [Laquinimod (ABR-215062)], the remaining activity at 1.25 µM ([1]; Well no.=4745) was 105% and the remaining activity at 3.75 µM ([2]; Well no.=4745) was 107%.
CC[C@@H](C(=O)[C@@H](C)[C@@H](O)[C@H](C)CCc1ccc(C)c(O)c1C(=O)O)[C@H]1O[C@](CC)([C@H]2CC[C@](O)(CC)[C@H](C)O2)C[C@@H]1C [Lasalocid A] was tested, and the remaining activity at 1.25 µM ([1]; Well no.=3737) was 95% and the remaining activity at 3.75 µM ([2]; Well no.=3737) was 95.2%.
In the case of CN1CCC(C(=O)c2cccc(NC(=O)c3c(F)cc(F)cc3F)n2)CC1 [Lasmiditan (hydrochloride)], the remaining activity at 1.25 µM ([1]; Well no.=8055) is reported as 97% and the remaining activity at 3.75 µM ([2]; Well no.=8055) is reported as 98.4%.
CC(C)OC(=O)CCC/C=C\C[C@@H]1[C@@H](CC[C@@H](O)CCc2ccccc2)[C@H](O)C[C@@H]1O [Latanoprost] gave a remaining activity at 1.25 µM ([1]; Well no.=1769) of 97.5%, a remaining activity at 1.25 µM ([1]; Well no.=6843) of 100% and a remaining activity at 3.75 µM ([2]; Well no.=1769) of 95.3%. For the same compound, the remaining activity at 3.75 µM ([2]; Well no.=6843) was 98.9%.
In the case of COc1ccc(C[C@H]2c3cc(OC)c(OC)cc3CC[N+]2(C)C)cc1OC [Laudanosine methiodide], the remaining activity at 1.25 µM ([1]; Well no.=3589) is reported as 103% and the remaining activity at 3.75 µM ([2]; Well no.=3589) is reported as 106%.
For CCCCCCCCCCCC(=O)O [Lauric acid], the remaining activity at 1.25 µM ([1]; Well no.=7169) was 96.8% and the remaining activity at 3.75 µM ([2]; Well no.=7169) was 98.4%.
O=C(O)c1cc(N(Cc2ccccc2O)Cc2cc(O)ccc2O)ccc1O [Lavendustin A] was tested, and the remaining activity at 1.25 µM ([1]; Well no.=3837) was 90.9% and the remaining activity at 3.75 µM ([2]; Well no.=3837) was 94.6%.
O=C(O)c1cc(N(Cc2ccccc2O)Cc2ccccc2O)ccc1O [Lavendustin B] was tested, and the remaining activity at 1.25 µM ([1]; Well no.=3807) was 95.8% and the remaining activity at 3.75 µM ([2]; Well no.=3807) was 98%.
Cc1oncc1C(=O)Nc1ccc(C(F)(F)F)cc1 [Leflunomide] was tested, and the remaining activity at 1.25 µM ([1]; Well no.=787) was 104%, the remaining activity at 1.25 µM ([1]; Well no.=2268) was 96.5% and the remaining activity at 3.75 µM ([2]; Well no.=787) was 105%. The remaining activity at 3.75 µM ([2]; Well no.=2268) was 104%.
Work on Nc1cccc2c1CN(C1CCC(=O)NC1=O)C2=O (centres unmarked) [Lenalidomide (Revlimid)] yielded a remaining activity at 1.25 µM ([1]; Well no.=4838) of 97.7% and a remaining activity at 3.75 µM ([2]; Well no.=4838) of 97.8%.
O=C(O)CSc1nnc(Br)n1-c1ccc(C2CC2)c2ccccc12 [Lesinurad] was tested, and the remaining activity at 1.25 µM ([1]; Well no.=8158) was 102% and the remaining activity at 3.75 µM ([2]; Well no.=8158) was 104%.
N#Cc1ccc(C(c2ccc(C#N)cc2)n2cncn2)cc1 [Letrozole] gave a remaining activity at 1.25 µM ([1]; Well no.=1822) of 97.8% and a remaining activity at 3.75 µM ([2]; Well no.=1822) of 98.2%.
CC1=CC(=O)C2=C(C)CC[C@@H]3[C@H](OC(=O)[C@H]3C)[C@@H]12 [Leucomisine] gave a remaining activity at 1.25 µM ([1]; Well no.=3248) of 94.5% and a remaining activity at 3.75 µM ([2]; Well no.=3248) of 96.8%.
Work on Nc1nc(=O)c2c([nH]1)NCC(CNc1ccc(C(=O)N[C@@H](CCC(=O)O)C(=O)O)cc1)N2C=O (some centres unmarked) [Leucovorin Calcium] yielded a remaining activity at 1.25 µM ([1]; Well no.=4757) of 103% and a remaining activity at 3.75 µM ([2]; Well no.=4757) of 107%.
With CC(C)C[C@H](N)C(=O)N[C@@H](Cc1ccccc1)C(=O)O [Leucyl-phenylalanine] (H-Leu-Phe-OH) the remaining activity at 1.25 µM ([1]; Well no.=6291) was 104%, the remaining activity at 1.25 µM ([1]; Well no.=8754) was 87.2% and the remaining activity at 3.75 µM ([2]; Well no.=6291) was 102%. The remaining activity at 3.75 µM ([2]; Well no.=8754) was 87.4%.
CCCCCCCC[C@H](O)/C=C/C=C\C=C\[C@H](O)CCCC(=O)O [Leukotriene B3] was tested, and the remaining activity at 1.25 µM ([1]; Well no.=4421) was 102% and the remaining activity at 3.75 µM ([2]; Well no.=4421) was 101%.
For CCCCC/C=C\C[C@@H](O)/C=C/C=C/C=C\[C@@H](O)CCCC(=O)O [Leukotriene B4], the remaining activity at 1.25 µM ([1]; Well no.=4423) was 101% and the remaining activity at 3.75 µM ([2]; Well no.=4423) was 97.4%.
